Reference: patent publication US20190125934A1, “TOUGH HYDROGEL COATING AND METHOD OF MANUFACTURE” (Massachusetts Institute of Technology, priority 2017, published 2019)
Counter-ions that a name gives are not always drawn.

Legend:
[1] = Two-chamber release test of model drugs from hydrogel laminate; format: physicochemical; details: for dye leakage through the laminate into the opposite chamber: absorbance at 550 nm and 630 nm in both chambers; for power law release exponent: release from hydrogel layers of the laminate into DI water, Fickian release
Description: A two-chamber diffusion device was made using cast acrylic plates (McMaster Carr), and small magnetic stir bars and stir plates (VWR International) were used for stirring. For the diffusion tests, a 3cm×3 cm hydrogel, elastomer, or impermeable hydrogel laminate sample was placed between the chambers and screwed together tightly to prevent leakage from the chambers. A 5.0×10−4 M rhodamine B solution (Sigma-Aldrich R6626) was placed on one chamber while DI water was placed in the opposite chamber, and 1 mL aliquots were taken every 10 min and placed in a disposable cuvette. Absorbance was measured using a spectrophotometer (BioMate 3S, ThermoFischer Scientific) and converted to concentration using calibration curves of solutions with known concentrations. The setup for release experiments was identical except both chambers initially contained DI water with rhodamine B and green food dye (Fast green FCF, Sigma-Aldrich F7252) being released from the hydrogel. For rhodamine diffusion and release, a wavelength sweep was performed to determine the maximum absorbance, which occurred at 550 nm. The calibration curve was constructed by measuring absorbance of standard solutions in the 0-50×10−6 m range. For green food dye release, the maximum absorbance occurred at 630 nm. The calibration curve was constructed by measuring absorbance of standard solutions in the 0-200 ppm range.
Taking advantage of the impermeability of the hydrogel-elastomer laminate, the possibility of releasing different molecules from the two sides of the hydrogel sheets in the laminate was tested. Green food dye (Fast Green FCF, Sigma-Aldrich) and rhodamine B were used as model drugs and were loaded into the opposing two hydrogel sheets in the hydrogel-elastomer laminate structure. […] The concentrations of green food dye and rhodamine B in the solutions of both chambers were measured over time using absorbance measurements. […] Since the dyes used have absorbance maximums at different wavelengths (550 nm and 630 nm), it was possible to detect dye leakage through the impermeable hydrogel-elastomer laminate by monitoring the absorbance signals at the two wavelengths in both chambers.

[2] = tested on: Escherichi coli strain expressing green fluorescent protein; test: Bacterial adhesion testing; format: cell-based; details: 24 hour incubation; FIG. 4; streptomycin sulfate 0.1 wt %
Description: The high robustness and stretchability of the hydrogel-elastomer laminates allows for proper functioning of the devices under stresses and deformations. […] In addition, the lubricious and highly hydrated hydrogel coating surfaces provided by the present invention are capable of improving protein adsorption, anticlotting and foreign-body reaction of the device as compared to an uncoated device. Moreover, the coating protocol of the present invention can be designed to include therapeutic agents in the hydrogel coating and/or to introduce hydrogel components with known biological responses such as PEG, hyaluronic acid, and zwitterionic groups.
An engineered Escherichi coli strain expressing green fluorescent protein was cultured in a 24-well plate above 8 mm round samples of latex, glass or swollen hydrogel laminate (PAAm-ALG and PAAm-CHI, as described previously). Streptomycin sulfate (Sigma-Aldrich S9137) was added to the two laminate formulations, at a final concentration of 0.1 wt %. After incubating at 37° C. for 24 h, the samples were removed, rinsed with PBS to remove free-floating bacteria, and imaged with a fluorescent microscope (Nikon Eclipse LV100ND).

| power law release exponent [1] | SMILES | dye leakage through the laminate into the opposite chamber [1] | effect on antibacterial action of the hydrogel laminates [2] |
| --- | --- | --- | --- |
| 0.5 | CCN(Cc1cccc(S(=O)(=O)[O-])c1)c1ccc(C(=C2C=CC(=[N+](CC)Cc3cccc(S(=O)(=O)[O-])c3)C=C2)c2ccc(O)cc2S(=O)(=O)[O-])cc1.[Na+].[Na+] [Green food dye, Fast Green FCF] | No green food dye was detected in the rhodamine chamber | – |
| – | [H]/N=C(/N)N[C@H]1[C@H](O)[C@@H](O)[C@H](O[C@@H]2O[C@@H](C)[C@](O)(C=O)[C@H]2O[C@@H]2O[C@@H](CO)[C@H](O)[C@@H](O)[C@@H]2NC)[C@@H](N/C(N)=N\[H])[C@@H]1O [antibiotic, Streptomycin sulfate] | – | improve the antibacterial action |
| 0.5 | CCN(CC)c1ccc2c(-c3ccccc3C(=O)O)c3ccc(=[N+](CC)CC)cc-3oc2c1 [rhodamine B] | vice versa | – |
